Our source for the IC50 values is US7981904B2, “Acetyl CoA carboxylase inhibitors” (Takeda Pharmaceutical Company Limited, priority 2008, dated 2011).

In one experiment the target is T1, Human ACC1 (Homo sapiens, UniProt Q13085).
T1 construct: made in house; host or cells: SF-9 insect cells (baculovirus, pFAST-BacHTc)
The experiment in a line: in vitro enzymatic ACC activity assay (malachite green, absorbance at 620 nm), ACC1. It is filed as biochemical. Particulars: recombinant His-tagged human ACC1, 8 μg/mL; 60 min preincubation, 20 min reaction at 30° C. The procedure:
(§1) Provided in Example A is an in vitro enzymatic ACC activity assay for activity against ACC. The binding affinity of the test compound to ACC1 or ACC2 is determined by the changes in absorbance (at 620 nm); […]. It should be noted that a variety of other expression systems and hosts are also suitable for the expression of ACC, as would be readily appreciated by one of skill in the art.
A. Purification of Human ACC1
Human ACC1 cDNA was amplified from human liver cDNA by polymerase chain reaction using primers; 5′[…]3′ (SEQ ID NO. 1) and 5′[…]3′ (SEQ ID NO: 2). The amplified DNA fragment was digested by restriction enzyme SalI and NotI, and cloned into pFAST-BacHTc (Invitrogen). This plasmid DNA was used for preparation of recombinant vaculovirus with BAC-TO-BAC Baculovirus Expression System (Invitrogen).
SF-9 cells were infected with the vaculovirus and cultured at 27° C. for 3 days. Harvested cells were homogenized in buffer A (25 mM HEPES (pH7.5), 130 mM NaCl, 1 mM EDTA, 25 mM sodium glycerophosphate, 1 mM sodium orthovanadate, 10% glycerol, complete protease inhibitor), and subjected to ultracentrifuge at 185700×g for 50 min at 4° C. ACC1 protein with 6×His-tag at the N-terminal was purified from the supernatant using Ni-NTA Super Flow Gel (QIAGEN). Eluted protein was dialysed against buffer B (50 mM HEPES (pH 7.5), 300 mM NaCl, 10 mM MgCl2, 10 mM tripotassium citrate, 2 mM dithiothreitol) and concentrated using Vivaspin20 ultrafiltration tube (Sartorius).
(§2) C. Measurement of ACC Activity
(§3) Malachite green solution was prepared by mixing 100 mL of solution A (0.12% malachite green in 5N H2SO4), 25 mL of solution B (7.5% ammonium molybdate) and 2 mL of solution C (11% TWEEN-20).
(§4) ACC1 was diluted to 8 μg/mL in reaction buffer (50 mM HEPES pH7.5, 10 mM MgCl2, 10 mM tripotassium citrate, 2 mM DTT, 0.75 mg/mL fatty acid free BSA) and 10 μL diluted enzyme solution was pored into each well of 384-well clear bottom plate. Test compound was diluted in the reaction buffer and 5 μL of the compound solution was added into each well, and the mixture was incubated at 30° C. for 60 minutes. Reaction was initiated by addition of 5 μL substrate solution (50 mM KHCO3, 200 μM ATP, 200 μM acetyl-CoA). After incubation at 30° C. for 20 minutes, reaction was terminated by addition of 5 μL malachite green solution and absorbance at 620 nm was measured.
(§5) Percent activity at each concentration of compound was calculated from the following equation:
(§6) [formula] where Abs is absorbance, Avg is average.
(§7) Data were subjected to nonlinear regression analysis using GraphPad Prism Software (GraphPad Software Inc.) to obtain IC50 values.

In the next experiment the target is T2, Human ACC2 (Homo sapiens, UniProt O00763).
T2 construct: made in house; host or cells: SF-9 insect cells (baculovirus, pFAST-BacHTa)
Nature of the experiment: in vitro enzymatic ACC activity assay (malachite green, absorbance at 620 nm), ACC2. It is filed as biochemical. The note with it: recombinant His-tagged human ACC2, 6.4 μg/mL; same method as ACC1. Here is the method: as §1
B. Purification of Human ACC2
Human ACC2 cDNA except coding region for mitochondria localization sequence was amplified from human skeletal muscle cDNA by polymerase chain reaction using primers; 5′[…]3′ (SEQ ID NO: 3) and 5′[…]3′ (SEQ ID NO: 4). The amplified DNA fragment was digested by SalI and AflIII, and cloned into pFAST-BacHTa (Invitrogen). Preparation of recombinant vaculovirus, infection of the virus to SF-9 cells and purification of recombinant ACC2 protein with 6×His-tag at the N-terminal were performed in the same method as described above.
as §2, §3, §4
ACC2 was diluted to 6.4 μg/mL in reaction buffer, and the activity was measured by the same method as described for ACC1.
as §5, §6, §7

T2 sequence (O00763 117-2458 limits assumed): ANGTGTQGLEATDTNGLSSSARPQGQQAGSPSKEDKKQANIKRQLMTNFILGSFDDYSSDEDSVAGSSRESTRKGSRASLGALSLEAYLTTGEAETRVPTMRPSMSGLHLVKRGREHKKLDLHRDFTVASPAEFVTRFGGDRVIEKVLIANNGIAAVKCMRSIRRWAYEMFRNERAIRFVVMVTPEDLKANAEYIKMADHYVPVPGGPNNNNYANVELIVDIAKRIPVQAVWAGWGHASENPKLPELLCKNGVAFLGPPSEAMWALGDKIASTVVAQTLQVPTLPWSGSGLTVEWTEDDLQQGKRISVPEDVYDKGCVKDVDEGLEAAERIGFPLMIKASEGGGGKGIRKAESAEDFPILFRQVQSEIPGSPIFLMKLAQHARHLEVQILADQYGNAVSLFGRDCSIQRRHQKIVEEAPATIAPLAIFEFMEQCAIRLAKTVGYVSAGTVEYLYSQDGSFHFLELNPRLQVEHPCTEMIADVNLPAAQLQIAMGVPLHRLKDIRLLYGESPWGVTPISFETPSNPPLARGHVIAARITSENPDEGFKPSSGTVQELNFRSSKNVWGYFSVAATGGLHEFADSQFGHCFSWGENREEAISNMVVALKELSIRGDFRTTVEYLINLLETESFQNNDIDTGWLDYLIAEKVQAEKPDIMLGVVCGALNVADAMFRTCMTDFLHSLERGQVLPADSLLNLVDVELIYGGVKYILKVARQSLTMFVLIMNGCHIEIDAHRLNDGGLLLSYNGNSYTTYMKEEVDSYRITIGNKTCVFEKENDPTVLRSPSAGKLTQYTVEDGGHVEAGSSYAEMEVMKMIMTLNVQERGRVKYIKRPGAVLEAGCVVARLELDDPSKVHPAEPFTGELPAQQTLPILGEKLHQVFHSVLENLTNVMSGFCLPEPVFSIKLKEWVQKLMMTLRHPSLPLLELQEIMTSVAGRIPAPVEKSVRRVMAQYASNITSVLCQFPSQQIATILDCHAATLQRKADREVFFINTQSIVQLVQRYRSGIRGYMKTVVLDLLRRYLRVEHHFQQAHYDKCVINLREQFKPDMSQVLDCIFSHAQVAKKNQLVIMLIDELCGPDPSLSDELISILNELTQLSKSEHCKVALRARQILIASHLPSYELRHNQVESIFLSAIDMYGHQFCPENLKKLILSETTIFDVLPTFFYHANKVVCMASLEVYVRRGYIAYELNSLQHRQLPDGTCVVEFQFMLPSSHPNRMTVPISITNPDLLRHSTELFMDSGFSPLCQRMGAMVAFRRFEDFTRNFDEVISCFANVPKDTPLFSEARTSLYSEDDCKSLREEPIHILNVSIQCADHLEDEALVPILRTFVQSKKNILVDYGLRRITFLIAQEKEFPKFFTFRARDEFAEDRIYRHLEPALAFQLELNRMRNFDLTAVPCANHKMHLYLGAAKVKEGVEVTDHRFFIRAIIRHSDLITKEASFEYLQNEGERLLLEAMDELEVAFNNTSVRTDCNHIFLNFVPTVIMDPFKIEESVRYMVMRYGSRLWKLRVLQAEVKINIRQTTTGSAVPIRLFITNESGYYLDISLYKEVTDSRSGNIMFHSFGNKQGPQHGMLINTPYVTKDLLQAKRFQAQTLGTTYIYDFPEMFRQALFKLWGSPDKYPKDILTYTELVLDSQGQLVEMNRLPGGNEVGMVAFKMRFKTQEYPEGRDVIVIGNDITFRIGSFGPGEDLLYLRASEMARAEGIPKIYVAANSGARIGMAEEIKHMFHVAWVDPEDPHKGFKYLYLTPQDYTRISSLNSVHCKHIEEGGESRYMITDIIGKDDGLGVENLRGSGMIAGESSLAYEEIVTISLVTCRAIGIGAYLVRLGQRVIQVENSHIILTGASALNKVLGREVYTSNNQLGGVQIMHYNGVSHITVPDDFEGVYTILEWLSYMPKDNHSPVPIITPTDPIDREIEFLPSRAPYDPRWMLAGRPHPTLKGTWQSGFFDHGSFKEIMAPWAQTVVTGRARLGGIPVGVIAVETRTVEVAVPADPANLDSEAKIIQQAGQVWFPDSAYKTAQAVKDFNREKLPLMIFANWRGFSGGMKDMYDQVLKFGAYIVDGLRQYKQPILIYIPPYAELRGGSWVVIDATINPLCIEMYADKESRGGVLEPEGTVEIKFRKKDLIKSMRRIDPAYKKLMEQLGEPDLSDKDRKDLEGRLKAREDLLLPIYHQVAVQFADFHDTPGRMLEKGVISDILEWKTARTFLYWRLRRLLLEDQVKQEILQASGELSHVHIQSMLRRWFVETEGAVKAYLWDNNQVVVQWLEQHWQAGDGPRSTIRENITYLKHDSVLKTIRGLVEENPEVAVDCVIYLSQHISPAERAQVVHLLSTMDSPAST

Regarding `CCNC(=O)Nc1sc2ccccc2c1C(=O)N1CCC2(CC1)N=C(CSC)NC2=O` [Compound 3, 1-ethyl-3-(3-(2-(methylthiomethyl)-4-oxo-1,3,8-triazaspiro[4.5]dec-1-enecarbonyl)benzo[b]thiophen-2-yl)urea], the IC50 at Human ACC1 and on Human ACC2 was 1 to 10 µM throughout.

Take `CCNC(=O)Nc1sc2ccccc2c1C(=O)N1CCC2(CC1)N=C(CS(C)(=O)=O)NC2=O` [Compound 4, 1-ethyl-3-(3-(2-(methylsulfonylmethyl)-4-oxo-1,3,8-triazaspiro[4.5]dec-1-enecarbonyl)benzo[b]thiophen-2-yl)urea]: the IC50 (in general, the concentration that gives 50% inhibition) at Human ACC1 is over 10 µM; at Human ACC2, 1 to 10 µM.

For the compound `CCNC(=O)Nc1sc2ccccc2c1C(=O)N1CCC2(CC1)N=C(CN1C(=O)CCC1=O)NC2=O` [Compound 5, 1-(3-(2-((2,5-dioxopyrrolidin-1-yl)methyl)-4-oxo-1,3,8-triazaspiro[4.5]dec-1-enecarbonyl)benzo[b]thiophen-2-yl)-3-ethylurea], the half-inhibitory concentration (IC50) at Human ACC1 and at Human ACC2 was over 10 µM each time.

In the case of `CCNC(=O)Nc1sc2ccccc2c1C(=O)N1CCC(N)(C#N)CC1` [Compound 6, 1-(3-(4-amino-4-cyanopiperidine-1-carbonyl)benzo[b]thiophen-2-yl)-3-ethylurea], the half-inhibitory concentration (IC50) on Human ACC1 and at Human ACC2 was over 10 µM throughout.

For `CCNC(=O)Nc1sc2ccccc2c1C(=O)N1CCC(N)(C(N)=O)CC1` [Compound 7, 4-amino-1-(2-(3-ethylureido)benzo[b]thiophene-3-carbonyl)piperidine-4-carboxamide], the IC50 at Human ACC1 and on Human ACC2 was over 10 µM in each case.

In the case of `CCNC(=O)Nc1sc2ccccc2c1C(=O)N1CCC2(CC1)N=C(CCl)NC2=O` [Compound 8, 1-(3-(2-(chloromethyl)-4-oxo-1,3,8-triazaspiro[4.5]dec-1-enecarbonyl)benzo[b]thiophen-2-yl)-3-ethylurea], the IC50 on Human ACC1 was over 10 µM; on Human ACC2, 1 to 10 µM.

For `CCNC(=O)Nc1sc2c(OC)cccc2c1C(=O)N1CCC2(CC1)N=C(CCl)NC2=O` [Compound 9, 1-(3-(2-(chloromethyl)-4-oxo-1,3,8-triazaspiro[4.5]dec-1-enecarbonyl)-7-methoxybenzo[b]thiophen-2-yl)-3-ethylurea], the concentration for half-maximal inhibition (IC50) on Human ACC1 and on Human ACC2 was 1 to 10 µM each time.

Turning to `CCNC(=O)Nc1sc2ccccc2c1C(=O)N1CCC2(CC1)N=C(CCC(=O)OCC)NC2=O` [Compound 10, ethyl 3-(8-(2-(3-ethylureido)benzo[b]thiophene-3-carbonyl)-4-oxo-1,3,8-triazaspiro[4.5]dec-1-en-2-yl)propanoate], the IC50 on Human ACC1 and at Human ACC2 was 1 to 10 µM throughout.

For `CCNC(=O)Nc1sc2c(OC)cccc2c1C(=O)N1CCC2(CC1)N=C(CCC(=O)OCC)NC2=O` [Compound 11, ethyl 3-(8-(2-(3-ethylureido)-7-methoxybenzo[b]thiophene-3-carbonyl)-4-oxo-1,3,8-triazaspiro[4.5]dec-1-en-2-yl)propanoate], the 50% inhibitory concentration (IC50) at Human ACC1 and on Human ACC2 was under 1 µM throughout.

For `CCNC(=O)Nc1sc2ccccc2c1C(=O)N1CCC2(CC1)N=C(CCC(=O)N(CC)CC)NC2=O` [Compound 12, N,N-diethyl-3-(8-(2-(3-ethylureido)benzo[b]thiophene-3-carbonyl)-4-oxo-1,3,8-triazaspiro[4.5]dec-1-en-2-yl)propanamide], the IC50 at Human ACC1 and on Human ACC2 was 1 to 10 µM throughout.

`CCNC(=O)Nc1sc2ccccc2c1C(=O)N1CCC2(CC1)N=C(CCC(=O)N1CCCCC1)NC2=O` [Compound 13, 1-ethyl-3-(3-(4-oxo-2-(3-oxo-3-(piperidin-1-yl)propyl)-1,3,8-triazaspiro[4.5]dec-1-enecarbonyl)benzo[b]thiophen-2-yl)urea]: the figures for the 50% inhibitory concentration (IC50) at Human ACC1 and on Human ACC2 were 1 to 10 µM and under 1 µM, respectively.

In the case of `CCNC(=O)Nc1sc2ccccc2c1C(=O)N1CCC2(CC1)N=CNC2=O` [Compound 14, 1-ethyl-3-(3-(4-oxo-1,3,8-triazaspiro[4.5]dec-1-enecarbonyl)benzo[b]thiophen-2-yl)urea], the IC50 at Human ACC1 and at Human ACC2 was over 10 µM throughout.

As for `CCCCC1=NC2(CCN(C(=O)c3c(NC(=O)NCC)sc4ccccc34)CC2)C(=O)N1` [Compound 15, 1-(3-(2-butyl-4-oxo-1,3,8-triazaspiro[4.5]dec-1-enecarbonyl)benzo[b]thiophen-2-yl)-3-ethylurea], the IC50 at Human ACC1 is 1 to 10 µM; at Human ACC2, under 1 µM.

Regarding `CCNC(=O)Nc1sc2c(OC)cccc2c1C(=O)N1CCC2(CC1)N=C(C(C)C)NC2=O` [Compound 16, 1-ethyl-3-(3-(2-isopropyl-4-oxo-1,3,8-triazaspiro[4.5]dec-2-enecarbonyl)-7-methoxybenzo[b]thiophen-2-yl)urea], the IC50 is 1 to 10 µM on Human ACC1 and under 1 µM at Human ACC2.

Consider `CCCCC1=NC2(CCN(C(=O)c3c(NC(=O)NCC)sc4c(OC)cccc34)CC2)C(=O)N1` [Compound 17, 1-(3-(2-butyl-4-oxo-1,3,8-triazaspiro[4.5]dec-1-enecarbonyl)-7-methoxybenzo[b]thiophen-2-yl)-3-ethylurea], for which the IC50 on Human ACC1 and on Human ACC2 was under 1 µM throughout.

With `CCNC(=O)Nc1sc2c(OC)cccc2c1C(=O)N1CCC2(CC1)NC(c1ccccc1)=NC2=O` [Compound 18, 1-ethyl-3-(7-methoxy-3-(4-oxo-2-phenyl-1,3,8-triazaspiro[4.5]dec-2-enecarbonyl)benzo[b]thiophen-2-yl)urea], the half-inhibitory concentration (IC50) on Human ACC1 was 1 to 10 µM; at Human ACC2, under 1 µM.

For `CCCCN1C=NC2(CCN(C(=O)c3c(NC(=O)NCC)sc4ccccc34)CC2)C1=O` [Compound 20, 1-(3-(3-butyl-4-oxo-1,3,8-triazaspiro[4.5]dec-1-enecarbonyl)benzo[b]thiophen-2-yl)-3-ethylurea], the results for the IC50 at Human ACC1 and at Human ACC2 were over 10 µM and 1 to 10 µM, respectively.

With `CCNC(=O)Nc1sc2ccccc2c1C(=O)N1CCC2(CC1)N=C(CSc1ccc(F)cc1)NC2=O` [Compound 21, 1-ethyl-3-(3-(2-((4-fluorophenylthio)methyl)-4-oxo-1,3,8-triazaspiro[4.5]dec-1-enecarbonyl)benzo[b]thiophen-2-yl)urea], the IC50 at Human ACC1 and on Human ACC2 was 1 to 10 µM throughout.

Take `CCNC(=O)Nc1sc2ccccc2c1C(=O)N1CCC2(CC1)N=C(CSC(C)C)NC2=O` [Compound 22, 1-ethyl-3-(3-(2-(isopropylthiomethyl)-4-oxo-1,3,8-triazaspiro[4.5]dec-1-enecarbonyl)benzo[b]thiophen-2-yl)urea]: the figures for the IC50 at Human ACC1 and on Human ACC2 were 1 to 10 µM and under 1 µM, respectively.

In the case of `CCNC(=O)Nc1sc2ccccc2c1C(=O)N1CCC2(CC1)N=C(C[S+]([O-])C(C)C)NC2=O` (stereo not drawn) [Compound 23, 1-ethyl-3-(3-(2-(isopropylsulfinylmethyl)-4-oxo-1,3,8-triazaspiro[4.5]dec-1-enecarbonyl)benzo[b]thiophen-2-yl)urea], the IC50 was over 10 µM on Human ACC1 and under 1 µM at Human ACC2.

As to `CCNC(=O)Nc1sc2ccccc2c1C(=O)N1CCC2(CC1)N=C(CS(=O)(=O)C(C)C)NC2=O` [Compound 24, 1-ethyl-3-(3-(2-(isopropylsulfonylmethyl)-4-oxo-1,3,8-triazaspiro[4.5]dec-1-enecarbonyl)benzo[b]thiophen-2-yl)urea], the values for the half-maximal inhibitory concentration (IC50) at Human ACC1 and at Human ACC2 were 1 to 10 µM and under 1 µM, respectively.
